Measurements from BigSolDB 2.1.

CCc1ccc(CCOc2ccc(CC3SC(=O)NC3=O)cc2)nc1.Cl (stereo not drawn)
solubility (mole fraction)
Details | in DMF | in acetic acid | in ethanol | in methanol | in n-propanol
278.15 K | 0.0161 | – | 0.000535 | 0.004 | 0.000325
283.15 K | 0.017 | – | – | 0.00494 | 0.000395
284.15 K | – | – | 0.000626 | – | –
288.15 K | 0.0183 | 0.00108 | 0.000723 | 0.00615 | 0.000456
293.15 K | 0.0194 | 0.0015 | 0.000879 | 0.00738 | 0.000522
298.15 K | 0.021 | 0.00203 | 0.00103 | 0.0086 | 0.00063
303.15 K | 0.0227 | 0.00276 | 0.00121 | 0.0101 | 0.00075
308.15 K | 0.0247 | 0.0038 | 0.00147 | 0.0121 | 0.00088
313.15 K | 0.0269 | 0.00558 | 0.00178 | 0.0144 | 0.00104
318.15 K | 0.0292 | 0.00804 | 0.00222 | 0.0173 | 0.00127
323.15 K | 0.0323 | 0.0118 | 0.00266 | 0.0211 | 0.00149
